The text below walks through data of PubChem BioAssay (NCI).

Among the test systems are RPMI-8226 leukemia; SW-620 colon; HCT-15 colon; SNB-75 CNS; DU-145 prostate; 786-0 renal; NCI-H226 lung; OVCAR-4 ovarian; K-562 leukemia; SR leukemia.
What all share (assay): NCI tumour cell line growth inhibition, 48 h

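Step 1: Grow cells in 96-well plates. Step 2: Expose to compound for 48 hours at 5 concentrations. Step 3: Interpolate endpoints linearly; if unreached, use highest concentration. GI50 = concentration required for 50% inhibition of growth. TGI marks complete inhibition of growth.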

For `Cn1cc(-c2cnc3ccc(NC(=O)Nc4ccc(F)c(Br)c4)cc3n2)cn1`, the GI50 with RPMI-8226 leukemia was 1.25 µM; in the assay on SW-620 colon, 1.85 µM; in the assay with HCT-15 colon, 1.92 µM; with SNB-75 CNS, 1.97 µM; in the assay with DU-145 prostate, 1.67 µM; with 786-0 renal it was 1.98 µM. The GI50 in the assay with NCI-H226 lung is 1.52 µM; with OVCAR-4 ovarian it was 1.53 µM. The TGI is 3.82 µM in the assay on RPMI-8226 leukemia; 3.83 µM with SW-620 colon; 4.45 µM with HCT-15 colon; 4.8 µM in the assay with SNB-75 CNS; 3.96 µM in the assay on DU-145 prostate; 5.9 µM in the assay with 786-0 renal. In addition, the TGI stood at 3.64 µM in the assay with NCI-H226 lung and 5.55 µM in the assay with OVCAR-4 ovarian.
On to `CCCCN(CCCC)C(=O)C(=O)C(C#N)c1ccc(C)cc1` (stereo not given), for which the TGI with RPMI-8226 leukemia, in the assay on SW-620 colon, with HCT-15 colon, with SNB-75 CNS, with 786-0 renal and in the assay with NCI-H226 lung was greater than 100 µM throughout. Also, the TGI in the assay on OVCAR-4 ovarian and with K-562 leukemia was greater than 100 µM each time.
For `O=C(N/N=C/c1ccccc1O)c1cccc([N+](=O)[O-])c1`, the TGI with RPMI-8226 leukemia, with SW-620 colon, with HCT-15 colon, in the assay with 786-0 renal, in the assay with OVCAR-4 ovarian and in the assay on K-562 leukemia was greater than 100 µM each time. In the assay on SR leukemia, this molecule showed a TGI greater than 100 µM.
As to `CC(C)CC(=O)[O-].CC(C)CC(=O)[O-].N.N.N.N.[Co+3].[O-][Cl+3]([O-])([O-])[O-]`, the GI50 with RPMI-8226 leukemia, in the assay on SW-620 colon, in the assay with HCT-15 colon, in the assay on SNB-75 CNS, in the assay on 786-0 renal and with OVCAR-4 ovarian was greater than 100 µM throughout. Also, the GI50 with K-562 leukemia is greater than 100 µM. Also, the TGI in the assay on RPMI-8226 leukemia, in the assay on SW-620 colon, with HCT-15 colon, in the assay on SNB-75 CNS, with 786-0 renal and in the assay with OVCAR-4 ovarian was greater than 100 µM throughout. Moreover, in the assay with K-562 leukemia, the TGI is greater than 100 µM.
`COC(=O)C[C@H]1CCC2(OCCO2)[C@]1(C)C(=O)OC`: the TGI in the assay on RPMI-8226 leukemia, with SW-620 colon, in the assay on HCT-15 colon, in the assay with SNB-75 CNS, in the assay with 786-0 renal and with OVCAR-4 ovarian was greater than 100 µM each time. Further, the TGI in the assay with K-562 leukemia was greater than 100 µM.
Take `CCCCCCCCCCCCCC(=O)OC1CC(=O)OC1CO` (stereo not given): the TGI with RPMI-8226 leukemia is greater than 100 µM; in the assay with SW-620 colon, greater than 100 µM; in the assay on HCT-15 colon it was 38.4 µM; in the assay on SNB-75 CNS, greater than 100 µM; in the assay on 786-0 renal, greater than 100 µM; in the assay with OVCAR-4 ovarian, greater than 100 µM. In the assay with K-562 leukemia, the TGI was found to be 58.8 µM.
As to `CC12CC[C@@H](C(C)(C)O)C1[C@@H](O)CC1(C)C2CCC2[C@@]3(C)CC[C@H](O)C(C)(C)C3C(O)C[C@]21C` (stereo not given in full), the TGI in the assay on RPMI-8226 leukemia was greater than 100 µM; in the assay with SW-620 colon, 39 µM; with HCT-15 colon, 29.4 µM; in the assay with 786-0 renal it was 33.8 µM; with OVCAR-4 ovarian, 32.6 µM; in the assay with K-562 leukemia, 24.5 µM.
Turning to `CCCCNC1=C(C(=O)OCC)C(=O)CO1`, the TGI with RPMI-8226 leukemia, with SW-620 colon, with HCT-15 colon, with SNB-75 CNS, with 786-0 renal and in the assay on NCI-H226 lung was greater than 100 µM throughout. In addition, the TGI with OVCAR-4 ovarian and with K-562 leukemia was greater than 100 µM each time.
Turning to `CCCCCCCCCC[C@@H](O)[C@@H]1CC[C@H]([C@H]2CC[C@@H]([C@@H](O)CCCCCCCCCC[C@H]3CC(CC(C)=O)C(=O)O3)O2)O1` (stereo not given in full), the TGI in the assay with RPMI-8226 leukemia was 15.4 µM; in the assay on SW-620 colon it was 38 µM; in the assay with HCT-15 colon, 34 µM; with SNB-75 CNS, 26.9 µM; in the assay with 786-0 renal, 28.5 µM; with NCI-H226 lung it was 20.2 µM. Also, the figures for the TGI with OVCAR-4 ovarian and with K-562 leukemia were 21.7 µM and 33.4 µM, respectively.
For the molecule `Cc1ccc(CS/C(=C\c2ccc([N+](=O)[O-])cc2)C(=O)c2ccc(F)cc2)cc1`, the GI50 is 0.458 µM with RPMI-8226 leukemia; 1.67 µM with SW-620 colon; 19.2 µM with SNB-75 CNS; 21.1 µM in the assay on DU-145 prostate; 2.11 µM in the assay on 786-0 renal; 3.17 µM in the assay on NCI-H226 lung. The GI50 in the assay on OVCAR-4 ovarian is 3.04 µM; with K-562 leukemia, 3.21 µM. The TGI was 3.51 µM in the assay with RPMI-8226 leukemia; 3.71 µM in the assay with SW-620 colon; 71.8 µM in the assay on SNB-75 CNS; greater than 100 µM with DU-145 prostate; 4.99 µM with 786-0 renal; 15 µM in the assay with NCI-H226 lung. The TGI in the assay on OVCAR-4 ovarian was 13.3 µM; in the assay with K-562 leukemia it was greater than 100 µM.
Regarding `N=C1CSC2=NC3=C(CCC/C3=C\c3ccccc3)C(c3ccccc3)N12` (stereo not given), the TGI in the assay with RPMI-8226 leukemia came to 5.57 µM; in the assay with SW-620 colon, 15.2 µM; with SNB-75 CNS it was 23.7 µM; in the assay on 786-0 renal it was 18.3 µM; in the assay on NCI-H226 lung, 35.1 µM; with K-562 leukemia, 18.4 µM.
Regarding `O=C1CNCCCN2CCN(CCCNCC(=O)Nc3ccc(cc3)S(=O)(=O)c3ccc(cc3)NC(=O)CNCCCN3CCN(CCCNCC(=O)Nc4ccc(cc4)S(=O)(=O)c4ccc(cc4)N1)CC3)CC2`, the TGI with RPMI-8226 leukemia is 64 µM; in the assay with SW-620 colon, greater than 100 µM; in the assay on HCT-15 colon, greater than 54.8 µM; in the assay with SNB-75 CNS it was greater than 100 µM; in the assay with DU-145 prostate, greater than 100 µM; in the assay with 786-0 renal it was 38.9 µM. For the same molecule, the TGI with NCI-H226 lung is greater than 73.6 µM; with OVCAR-4 ovarian, 97.7 µM; in the assay on K-562 leukemia it was greater than 58.5 µM.
On to `N#Cc1ccc(C#Cc2ccccc2C#CCCCCO)cc1`, for which the GI50 in the assay with RPMI-8226 leukemia is 20.6 µM; in the assay with SW-620 colon it was 17.4 µM; in the assay on HCT-15 colon, 15.6 µM; in the assay on SNB-75 CNS, 42.2 µM; with DU-145 prostate, 16 µM; in the assay with 786-0 renal, 4.39 µM. Moreover, the GI50 was 20.9 µM with NCI-H226 lung, 26.2 µM in the assay on OVCAR-4 ovarian and 21.7 µM in the assay on K-562 leukemia. The TGI with RPMI-8226 leukemia was 44.1 µM; in the assay on SW-620 colon, 35 µM; with HCT-15 colon it was 29 µM; with SNB-75 CNS, greater than 100 µM; with DU-145 prostate it was 29.8 µM; with 786-0 renal it was 18.1 µM. Moreover, the TGI came out at 38.6 µM in the assay with NCI-H226 lung, 65.9 µM in the assay on OVCAR-4 ovarian and 46.1 µM in the assay with K-562 leukemia.
